Literature values as cited in patent US20260345483A1, “Pharmaceutical Formulation” (Klaria Pharma Holding AB, priority 2018, published 2026).

Key:
[1] = aqueous solution, ref [4]
[2] = subcutaneous injection compared with intramuscular injection, ref [3]
[3] = system: porcine buccal epithelium; conditions: enhancer concentration, ref [6]

| SMILES | pH of acceptable adrenaline stability [1] | pH of optimal adrenaline stability [1] | time of peak plasma concentration [2] | enhanced permeability with porcine buccal epithelium [3] |
| --- | --- | --- | --- | --- |
| CNCC(O)c1ccc(O)c(O)c1 (stereo not shown) [adrenaline] | < 5.5 | 3-4 | significantly delayed |  |
| CCCCCCCC/C=C\CCCCCCCC(=O)O [Oleic acid, oleic acid] |  |  |  | 1-10% |
